Reference: the NIST ThermoML archive (doi:10.1021/je200668a)
Several values for one entry are separate records, joined by “and”; a condition that tells them apart may be missing. Identical values can stand only once. Numbers after ± are expanded uncertainties.

Conditions: Liquid, Pulse Transmission

O [water]
Conditions	speed of sound
288.13 K, 250900 kPa	1878.5 ± 2.7 m/s
288.13 K, 300400 kPa	1955.1 ± 2.9 m/s
288.13 K, 701000 kPa	2453.9 ± 4 m/s
288.14 K, 150300 kPa	1718.5 ± 2.4 m/s
288.15 K, 50900 kPa	1550.1 ± 2 m/s
288.15 K, 349200 kPa	2025.9 ± 3 m/s
288.15 K, 499800 kPa	2225.2 ± 3.4 m/s
288.16 K, 99800 kPa	1631.8 ± 2.2 m/s
288.16 K, 200200 kPa	1800.9 ± 2.6 m/s
288.17 K, 99700 kPa	1633.2 ± 2.2 m/s
288.17 K, 401300 kPa	2098 ± 3.3 m/s
288.17 K, 561300 kPa	2300.1 ± 3.6 m/s
288.17 K, 640700 kPa	2391.2 ± 3.8 m/s
297.74 K, 702200 kPa	2448.7 ± 3.9 m/s
297.78 K, 653200 kPa	2402.2 ± 3.8 m/s
297.79 K, 250300 kPa	1895.5 ± 2.9 m/s
297.79 K, 549700 kPa	2286.1 ± 3.7 m/s
297.8 K, 499500 kPa	2225.4 ± 3.4 m/s
297.82 K, 601700 kPa	2346.1 ± 3.8 m/s
297.83 K, 300300 kPa	1967.2 ± 3 m/s
297.84 K, 200200 kPa	1819.5 ± 2.7 m/s
297.88 K, 50600 kPa	1580.3 ± 2.2 m/s
297.88 K, 151000 kPa	1743.2 ± 2.6 m/s
297.89 K, 400300 kPa	2101.3 ± 3.2 m/s
297.9 K, 100 kPa	1493.8 ± 1.9 m/s
297.9 K, 450500 kPa	2165.2 ± 3.4 m/s
297.99 K, 99500 kPa	1660.6 ± 2.6 m/s
298.05 K, 349200 kPa	2035.4 ± 3 m/s
298.07 K, 699900 kPa	2450.3 ± 3.9 m/s
298.09 K, 659800 kPa	2412.6 ± 3.8 m/s
298.1 K, 599200 kPa	2344.5 ± 3.7 m/s
298.11 K, 551300 kPa	2287 ± 3.6 m/s
298.12 K, 350600 kPa	2038.7 ± 3.1 m/s
298.15 K, 400500 kPa	2103.8 ± 3.2 m/s
298.15 K, 500000 kPa	2229.8 ± 3.4 m/s
298.16 K, 200800 kPa	1821.6 ± 2.5 m/s
298.16 K, 300500 kPa	1968.4 ± 3 m/s
298.18 K, 450300 kPa	2167.6 ± 3.3 m/s
298.2 K, 50100 kPa	1580.4 ± 2 m/s
298.24 K, 400400 kPa	2102.3 ± 3.2 m/s
298.27 K, 150700 kPa	1743.9 ± 2.5 m/s
298.28 K, 350900 kPa	2038.4 ± 3 m/s
298.29 K, 249200 kPa	1894.6 ± 2.8 m/s
298.3 K, 150800 kPa	1745 ± 2.5 m/s
298.3 K, 299000 kPa	1965.7 ± 3 m/s
298.31 K, 100400 kPa	1662.8 ± 2.3 m/s
298.31 K, 250700 kPa	1897.4 ± 2.8 m/s
298.34 K, 50200 kPa	1580.9 ± 2 m/s
298.34 K, 199800 kPa	1820.7 ± 2.6 m/s
298.35 K, 100 kPa	1492.8 ± 1.9 m/s
298.36 K, 100400 kPa	1664.2 ± 2.3 m/s
298.37 K, 100 kPa	1492.2 ± 2 m/s
298.38 K, 699000 kPa	2448 ± 3.9 m/s
298.41 K, 651700 kPa	2400.7 ± 3.8 m/s
298.42 K, 449900 kPa	2165.5 ± 3.3 m/s
298.43 K, 499700 kPa	2225.8 ± 3.4 m/s
298.43 K, 549200 kPa	2287.7 ± 3.6 m/s
298.45 K, 601800 kPa	2347.7 ± 3.7 m/s
308.06 K, 400400 kPa	2112.6 ± 3.2 m/s
308.07 K, 449300 kPa	2173.3 ± 3.3 m/s
308.08 K, 300500 kPa	1983.1 ± 2.9 m/s
308.09 K, 349400 kPa	2048.7 ± 3.1 m/s
308.09 K, 400000 kPa	2112.1 ± 3.2 m/s
308.09 K, 499500 kPa	2230.5 ± 3.4 m/s
308.09 K, 559700 kPa	2301.4 ± 3.6 m/s
308.09 K, 650800 kPa	2402.2 ± 3.8 m/s
308.09 K, 703600 kPa	2441.6 ± 4 m/s
308.1 K, 250500 kPa	1913.4 ± 2.8 m/s
308.1 K, 299900 kPa	1983.2 ± 2.9 m/s
308.1 K, 350900 kPa	2048.9 ± 3.1 m/s
308.1 K, 601700 kPa	2349.8 ± 3.8 m/s
308.1 K, 698500 kPa	2446.7 ± 3.9 m/s
308.11 K, 100 kPa	1515.3 ± 2 m/s
308.11 K, 160100 kPa	1781.2 ± 2.5 m/s
308.11 K, 650700 kPa	2402.3 ± 3.8 m/s
308.12 K, 149900 kPa	1766.1 ± 2.5 m/s
308.12 K, 200400 kPa	1840.6 ± 2.7 m/s
308.12 K, 200700 kPa	1840.1 ± 2.7 m/s
308.12 K, 299900 kPa	1984.1 ± 2.9 m/s
308.12 K, 400700 kPa	2110.8 ± 3.2 m/s
308.13 K, 51000 kPa	1606 ± 2 m/s
308.13 K, 349800 kPa	2049.7 ± 3.1 m/s
308.13 K, 599600 kPa	2344.5 ± 3.8 m/s
308.14 K, 99700 kPa	1690.4 ± 2.3 m/s
308.14 K, 150300 kPa	1766.1 ± 2.5 m/s
308.14 K, 449900 kPa	2171.7 ± 3.3 m/s
308.14 K, 701600 kPa	2447.4 ± 3.9 m/s
308.15 K, 100 kPa	1514.3 ± 2 m/s and 1514.1 ± 2 m/s
308.15 K, 250800 kPa	1913.1 ± 2.8 m/s
308.15 K, 450900 kPa	2174.9 ± 3.3 m/s
308.15 K, 499400 kPa	2232.5 ± 3.4 m/s
308.16 K, 111000 kPa	1706.1 ± 2.3 m/s
308.16 K, 639800 kPa	2388.9 ± 3.8 m/s
308.17 K, 50300 kPa	1604.9 ± 2 m/s
308.17 K, 99800 kPa	1690 ± 2.3 m/s
308.17 K, 200300 kPa	1839.8 ± 2.7 m/s
308.17 K, 549700 kPa	2292.4 ± 3.6 m/s
308.19 K, 250500 kPa	1913.9 ± 2.8 m/s
308.19 K, 549600 kPa	2291 ± 3.6 m/s
308.21 K, 499700 kPa	2232.3 ± 3.4 m/s
308.22 K, 50600 kPa	1605.5 ± 2 m/s
308.22 K, 599600 kPa	2346.6 ± 3.7 m/s
318.02 K, 200600 kPa	1860.6 ± 2.7 m/s
318.02 K, 350800 kPa	2062 ± 3.1 m/s
318.06 K, 399700 kPa	2122.5 ± 3.2 m/s
318.07 K, 99500 kPa	1705.7 ± 2.3 m/s
318.09 K, 349600 kPa	2062.1 ± 3.1 m/s
318.1 K, 200400 kPa	1860.8 ± 2.7 m/s
318.1 K, 299400 kPa	1995.8 ± 2.9 m/s
318.1 K, 300100 kPa	1998.9 ± 2.9 m/s
